Test results as given in patent publication US20100298141A1, “SUBSTITUTED PYRIDINE N-OXIDE HERBICIDES” (E. I. DU PONT DE NEMOURS AND COMPANY, priority 2007, published 2010).

What was measured:
[1] = test system: wild oat; assay: Test C pre-/postemergence test; format: in vivo, Avena fatua
Procedure, shortened: (§1)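 Seeds were planted and treated preemergence with test chemical in a non-phytotoxic solvent mixture containing surfactant. Postemergence applications of the same formulation went onto plants 2 to 18 cm tall (1- to 4-leaf stage). A dash marks no test result.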

[2] = test system: Italian ryegrass; assay: Test C pre-/postemergence test; format: in vivo, Lolium multiflorum
Procedure, shortened: as §1

[3] = test system: corn; assay: Test C pre-/postemergence test; format: in vivo, Zea mays
Procedure, shortened: as §1

[4] = test system: velvetleaf; assay: Test A pre-/postemergence greenhouse test; format: in vivo, Abutilon theophrasti; details: for Velvetleaf plant response rating: 0 to 100 scale; for Plant response rating, Velvetleaf: 0 to 100 scale where 0 is no effect and 100 is complete control
Procedure, shortened: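 Two application timings were run side by side in the greenhouse. Before emergence, compound went onto the soil surface of loam–sand pots as a directed spray; after emergence, plants at 2–10 cm and the one- to two-leaf stage were treated. Visual injury versus controls was rated at approximately day ten.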

[5] = test system: velvetleaf; assay: Test C pre-/postemergence test; format: in vivo, Abutilon theophrasti
Procedure, shortened: as §1

[6] = test system: johnsongrass; assay: Test C pre-/postemergence test; format: in vivo, Sorghum halepense
Procedure, shortened: as §1

[7] = test system: cocklebur; assay: Test C pre-/postemergence test; format: in vivo, Xanthium strumarium
Procedure, shortened: as §1

[8] = test system: barnyardgrass; assay: Test C flooded paddy test; format: in vivo, Echinochloa crus-galli; details: Flood
Procedure, shortened: (§2)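 Under a constant 3 cm flood, test compounds went directly into the paddy water. Following 13 to 15 days of greenhouse growth, treated species and controls were compared by eye.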

[9] = test system: catchweed bedstraw; assay: Test C pre-/postemergence test; format: in vivo, Galium aparine
Procedure, shortened: as §1

[10] = test system: green foxtail; assay: Test C pre-/postemergence test; format: in vivo, Setaria viridis
Procedure, shortened: as §1

[11] = test system: woolly cupgrass; assay: Test C pre-/postemergence test; format: in vivo, Eriochloa villosa
Procedure, shortened: as §1

[12] = test system: morningglory; assay: Test C pre-/postemergence test; format: in vivo, Ipomoea coccinea
Procedure, shortened: as §1

[13] = test system: downy brome; assay: Test C pre-/postemergence test; format: in vivo, Bromus tectorum
Procedure, shortened: as §1

[14] = test system: duck salad; assay: Test C flooded paddy test; format: in vivo, Heteranthera limosa; details: Flood
Procedure, shortened: as §2

[15] = test system: soybean; assay: Test C pre-/postemergence test; format: in vivo, Glycine max
Procedure, shortened: as §1

[16] = test system: giant foxtail; assay: Test C pre-/postemergence test; format: in vivo, Setaria faberii
Procedure, shortened: as §1

[17] = test system: blackgrass; assay: Test C pre-/postemergence test; format: in vivo, Alopecurus myosuroides
Procedure, shortened: as §1

[18] = 31 g ai/ha, Preemergence, scale 0 to 100
[19] = 62 g ai/ha, preemergence, scale 0 (no effect) to 100 (complete control)
[20] = preemergence, 125 g ai/ha, scale 0 (no effect) to 100 (complete control)
[21] = Postemergence, 500 g ai/ha, 0 is no effect, 100 is complete control
[22] = Preemergence, 125 g ai/ha, 0 no effect, 100 complete control
[23] = 31 g ai/ha, scale 0 to 100 (0 no effect, 100 complete control)
[24] = 62 g ai/ha, scale 0 to 100, 0 no effect, 100 complete control, 13 to 15 days
[25] = 125 g ai/ha, scale 0 to 100, 0 no effect, 100 complete control, 13 to 15 days
[26] = 250 g ai/ha, scale 0 to 100 (0 no effect, 100 complete control)
[27] = 62 g ai/ha, Preemergence, scale 0 to 100
[28] = 125 g ai/ha, preemergence, scale 0 (no effect) to 100 (complete control)
[29] = Preemergence, 31 g ai/ha, scale 0 to 100 (0 no effect, 100 complete control)
[30] = preemergence, 250 g ai/ha, scale 0 (no effect) to 100 (complete control)
[31] = 62 g ai/ha, scale 0 to 100 (0 no effect, 100 complete control)
[32] = 250 g ai/ha, scale 0 to 100, 0 no effect, 100 complete control, 13 to 15 days

## Cn1nc(C(F)(F)F)c(C(Cl)S(=O)(=O)c2cccc[n+]2[O-])c1Cl (stereo not drawn) [Compound 12]
[1]; [18]
  Oat, Wild plant response rating: 0
[1]; [19]
  Oat, Wild plant response rating: 0
[1]; Preemergence, 250 g ai/ha
  Plant response rating (0 to 100), Oat, Wild: 0
[1]; [20]
  Oat, Wild plant response rating: 0
[2]; [18]
  Ryegrass, Italian plant response rating: 0
[2]; [19]
  Ryegrass, Italian plant response rating: 70
[2]; Preemergence, 250 g ai/ha
  Plant response rating (0 to 100), Ryegrass, Italian: 85
[2]; [20]
  Ryegrass, Italian plant response rating: 70
[3]; [18]
  Corn plant response rating: 0
[3]; [19]
  Corn plant response rating: 0
[3]; Preemergence, 250 g ai/ha
  Plant response rating (0 to 100), Corn: 45
[3]; [20]
  Corn plant response rating: 0
[4]; Postemergence, 125 g ai/ha, 0 is no effect, 100 is complete control
  Velvetleaf plant response rating: 0
[4]; [21]
  Velvetleaf plant response rating: 0
[4]; [22]
  Velvetleaf plant response rating: 0
[4]; Preemergence, 500 g ai/ha
  Plant response rating, Velvetleaf: 0
[5]; [19]
  Velvetleaf plant response rating: 0
[5]; Preemergence, 250 g ai/ha
  Plant response rating (0 to 100), Velvetleaf: 0
[5]; [20]
  Velvetleaf plant response rating: 0
[6]; [18]
  Johnsongrass plant response rating: 0
[6]; [19]
  Johnsongrass plant response rating: 70
[6]; Preemergence, 250 g ai/ha
  Plant response rating (0 to 100), Johnsongrass: 100
[6]; [20]
  Johnsongrass plant response rating: 100
[7]; [18]
  Cocklebur plant response rating: 0
[7]; [19]
  Cocklebur plant response rating: 0
[7]; Preemergence, 250 g ai/ha
  Plant response rating (0 to 100), Cocklebur: 0
[7]; [20]
  Cocklebur plant response rating: 0
[8]; [23]
  Plant response rating, Barnyardgrass: 0
[8]; [24]
  Plant response rating, Barnyardgrass: 50
[8]; [25]
  Plant response rating, Barnyardgrass: 80
[8]; [26]
  Plant response rating, Barnyardgrass: 85
[9]; [18]
  Galium plant response rating: 80
[9]; [19]
  Galium plant response rating: 100
[9]; Preemergence, 250 g ai/ha
  Plant response rating (0 to 100), Galium: 100
[9]; [20]
  Galium plant response rating: 100
[10]; [18]
  Foxtail, Green plant response rating: 100
[10]; Preemergence, 250 g ai/ha
  Plant response rating (0 to 100), Foxtail, Green: 100
[10]; [20]
  Foxtail, Green plant response rating: 100
[11]; [18]
  Cupgrass, Woolly plant response rating: 80
[11]; [19]
  Cupgrass, Woolly plant response rating: 100
[11]; Preemergence, 250 g ai/ha
  Plant response rating (0 to 100), Cupgrass, Woolly: 100
[11]; [20]
  Cupgrass, Woolly plant response rating: 100
[12]; [18]
  Morningglory plant response rating: 0
[12]; [19]
  Morningglory plant response rating: 0
[12]; Preemergence, 250 g ai/ha
  Plant response rating (0 to 100), Morningglory: 80
[12]; [20]
  Morningglory plant response rating: 5
[13]; [18]
  Bromegrass, Downy plant response rating: 0
[13]; [19]
  Bromegrass, Downy plant response rating: 0
[13]; Preemergence, 250 g ai/ha
  Plant response rating (0 to 100), Bromegrass, Downy: 0
[13]; [20]
  Bromegrass, Downy plant response rating: 0
[14]; [23]
  Plant response rating, Ducksalad: 40
[14]; [24]
  Plant response rating, Ducksalad: 95
[14]; [25]
  Plant response rating, Ducksalad: 100
[14]; [26]
  Plant response rating, Ducksalad: 100
[15]; [18]
  Soybean plant response rating: 0
[15]; [19]
  Soybean plant response rating: 0
[15]; Preemergence, 250 g ai/ha
  Plant response rating (0 to 100), Soybean: 10
[15]; [20]
  Soybean plant response rating: 0
[16]; [18]
  Foxtail, Giant plant response rating: 80
[16]; [19]
  Foxtail, Giant plant response rating: 80
[16]; Preemergence, 250 g ai/ha
  Plant response rating (0 to 100), Foxtail, Giant: 100
[16]; [20]
  Foxtail, Giant plant response rating: 80
[17]; [18]
  Blackgrass plant response rating: 0
[17]; [19]
  Blackgrass plant response rating: 98
[17]; Preemergence, 250 g ai/ha
  Plant response rating (0 to 100), Blackgrass: 100
[17]; [20]
  Blackgrass plant response rating: 98

## Cc1cc[n+]([O-])c(S(=O)(=O)Cc2c(C(F)(F)F)nn(C)c2OCC(F)F)c1 [Compound 94]
[1]; [27]
  Oat, Wild plant response rating: 65
[1]; [28]
  Oat, Wild plant response rating: 65
[1]; [29]
  Plant response rating, Oat, Wild: 35
[1]; [30]
  Oat, Wild plant response rating: 98
[2]; [27]
  Ryegrass, Italian plant response rating: 70
[2]; [28]
  Ryegrass, Italian plant response rating: 90
[2]; [29]
  Plant response rating, Ryegrass, Italian: 0
[2]; [30]
  Ryegrass, Italian plant response rating: 98
[3]; [27]
  Corn plant response rating: 10
[3]; [28]
  Corn plant response rating: 90
[3]; [30]
  Corn plant response rating: 95
[4]; Postemergence, 125 g ai/ha
  Plant response rating, Velvetleaf: 10
[4]; [21]
  Velvetleaf plant response rating: 70
[4]; [22]
  Velvetleaf plant response rating: 10
[4]; Preemergence, 500 g ai/ha, 0 no effect, 100 complete control
  Velvetleaf plant response rating: 100
[5]; [27]
  Velvetleaf plant response rating: 40
[5]; [28]
  Velvetleaf plant response rating: 100
[5]; [29]
  Plant response rating, Velvetleaf: 0
[5]; [30]
  Velvetleaf plant response rating: 100
[6]; [27]
  Johnsongrass plant response rating: 95
[6]; [28]
  Johnsongrass plant response rating: 100
[6]; [29]
  Plant response rating, Johnsongrass: 85
[6]; [30]
  Johnsongrass plant response rating: 100
[7]; [27]
  Cocklebur plant response rating: 0
[7]; [28]
  Cocklebur plant response rating: 0
[7]; [29]
  Plant response rating, Cocklebur: 0
[7]; [30]
  Cocklebur plant response rating: 0
[8]; [31]
  Plant response rating, Barnyardgrass: 0
[8]; [32]
  Plant response rating, Barnyardgrass: 0
[9]; [27]
  Galium plant response rating: 100
[9]; [28]
  Galium plant response rating: 100
[9]; [29]
  Plant response rating, Galium: 95
[9]; [30]
  Galium plant response rating: 100
[10]; [27]
  Foxtail, Green plant response rating: 100
[10]; [28]
  Foxtail, Green plant response rating: 100
[10]; [29]
  Plant response rating, Foxtail, Green: 98
[10]; [30]
  Foxtail, Green plant response rating: 100
[11]; [27]
  Cupgrass, Woolly plant response rating: 90
[11]; [28]
  Cupgrass, Woolly plant response rating: 100
[11]; [29]
  Plant response rating, Cupgrass, Woolly: 10
[11]; [30]
  Cupgrass, Woolly plant response rating: 100
[12]; [27]
  Morningglory plant response rating: 90
[12]; [28]
  Morningglory plant response rating: 98
[12]; [29]
  Plant response rating, Morningglory: 30
[12]; [30]
  Morningglory plant response rating: 100
[13]; [27]
  Bromegrass, Downy plant response rating: 75
[13]; [28]
  Bromegrass, Downy plant response rating: 80
[13]; [29]
  Plant response rating, Bromegrass, Downy: 10
[13]; [30]
  Bromegrass, Downy plant response rating: 95
[14]; [31]
  Plant response rating, Ducksalad: 0
[14]; [32]
  Plant response rating, Ducksalad: 75
[15]; [27]
  Soybean plant response rating: 30
[15]; [28]
  Soybean plant response rating: 30
[15]; [29]
  Plant response rating, Soybean: 0
[15]; [30]
  Soybean plant response rating: 80
[16]; [27]
  Foxtail, Giant plant response rating: 95
[16]; [28]
  Foxtail, Giant plant response rating: 100
[16]; [29]
  Plant response rating, Foxtail, Giant: 90
[16]; [30]
  Foxtail, Giant plant response rating: 100
[17]; [27]
  Blackgrass plant response rating: 95
[17]; [28]
  Blackgrass plant response rating: 100
[17]; [29]
  Plant response rating, Blackgrass: 70
[17]; [30]
  Blackgrass plant response rating: 100
